The structures appear in SMILES notation.

The target in one experiment is T1, human orexin-1 receptor (Homo sapiens, UniProt O43613).
T1 construct: expressed in transfected cells; host or cells: CHO cells (G418 selection)
T1 sequence (O43613 1-425): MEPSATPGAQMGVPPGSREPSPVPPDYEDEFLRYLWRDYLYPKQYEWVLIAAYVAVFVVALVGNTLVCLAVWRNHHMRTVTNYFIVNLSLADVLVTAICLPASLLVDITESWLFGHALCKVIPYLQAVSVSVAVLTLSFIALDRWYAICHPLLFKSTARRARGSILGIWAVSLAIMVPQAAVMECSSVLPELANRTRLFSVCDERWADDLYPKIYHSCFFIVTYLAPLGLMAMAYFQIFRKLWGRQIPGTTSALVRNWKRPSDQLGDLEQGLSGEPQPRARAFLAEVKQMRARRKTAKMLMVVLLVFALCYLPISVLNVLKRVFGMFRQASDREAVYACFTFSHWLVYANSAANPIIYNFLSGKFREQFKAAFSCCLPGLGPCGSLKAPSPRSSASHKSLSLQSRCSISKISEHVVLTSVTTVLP
Put plainly: Intracellular calcium (FLIPR) antagonist assay, CHO cells expressing human orexin-1 receptor, 3 nM orexin-A. The format is cell-based. The settings on record: 1 uM compound, orexin-A 3 nM; for inhibition at 1 µM: CHO, read-out: OXIR % Inh. @ 1 uM. How it is done:
(§1) Antagonistic activities on both orexin receptors (i.e., to identify Orexin Receptor Antagonists) have been measured for each example compound using the in vitro assays (intracellular calcium measurements) as described herein. Other assays may also be used to identify Orexin Receptor Antagonists as would be understood by those of ordinary skill in the art. Chinese hamster ovary (CHO) cells expressing the human orexin-1 receptor and the human orexin-2 receptor, respectively, are grown in culture medium (Ham F-12 with L-Glutamine) containing 300 μg/mL G418, 100 U/mL penicillin, 100 μg/mL streptomycin and 10% heat inactivated fetal calf serum (FCS). The cells are seeded at 20′000 cells/well into 384-well black clear bottom sterile plates (Greiner). The seeded plates are incubated overnight at 37° C. in 5% CO2. Human orexin-A as an agonist is prepared as 1 mM stock solution in MeOH: water (1:1), diluted in HBSS containing 0.1% bovine serum albumin (BSA), NaHC03: 0.375 g/L and 20 mM HEPES for use in the assay at a final concentration of 3 nM.
(§2) Antagonists were prepared as 10 mM stock solution in DMSO, then diluted in 384-well plates using DMSO followed by a transfer of the dilutions into in HBSS containing 0.1% bovine serum albumin (BSA), NaHC03: 0.375 g/L and 20 mM HEPES. On the day of the assay, 50 μL of staining buffer (HBSS containing 1% FCS, 20 mM HEPES, NaHC03: 0.375 g/L, 5 mM probenecid (Sigma) and 3 μM of the fluorescent calcium indicator fluro-4 AM (1 mM stock solution in DMSO, containing 10% pluronic) is added to each well. The 384-well cell-plates are incubated for 50 min at 37° C. in 5% C02 followed by equilibration at RT for 30 min before measurement. Within the Fluorescent Imaging Plate Reader (FLIPR Tetra, Molecular Devices), potential Orexin Receptor Antagonists were added to the plate in a volume of 10 μl/well, incubated for 120 min and finally 10 μL/well of agonist is added. Fluorescence was measured for each well at 1 second intervals, and the height of each fluorescence peak compared to the height of the fluorescence peak induced by 3 nM orexin-A with vehicle in place of antagonist. The IC50 value (the concentration of compound needed to inhibit 50% of the agonistic response) was determined and normalized using the obtained IC50 value of an on-plate reference compound. Optimized conditions were achieved by adjustment of pipetting speed and cell splitting regime. The calculated IC50 values fluctuate depending on the daily cellular assay performance, as is known to those skilled in the art. In the case where IC50 values have been determined several times for the same compound, the geometric mean has been given.

For another experiment, the target named is T2, human orexin-2 receptor (Homo sapiens, UniProt O43614).
T2 construct: expressed in transfected cells; host or cells: CHO cells (G418 selection)
T2 sequence (O43614 1-444): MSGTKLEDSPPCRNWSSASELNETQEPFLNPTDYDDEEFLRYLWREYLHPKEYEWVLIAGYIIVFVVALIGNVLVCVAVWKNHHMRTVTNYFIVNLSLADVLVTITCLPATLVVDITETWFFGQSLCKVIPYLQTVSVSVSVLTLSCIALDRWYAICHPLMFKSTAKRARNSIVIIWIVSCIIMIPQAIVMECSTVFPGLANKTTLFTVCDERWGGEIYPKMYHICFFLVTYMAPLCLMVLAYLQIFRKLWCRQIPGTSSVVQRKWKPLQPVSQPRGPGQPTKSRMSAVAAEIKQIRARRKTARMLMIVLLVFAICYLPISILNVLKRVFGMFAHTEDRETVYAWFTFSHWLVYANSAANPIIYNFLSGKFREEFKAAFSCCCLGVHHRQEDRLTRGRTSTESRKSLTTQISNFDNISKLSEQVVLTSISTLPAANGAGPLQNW
Put plainly: Intracellular calcium (FLIPR) antagonist assay, CHO cells expressing human orexin-2 receptor, 3 nM orexin-A. The format is cell-based. Particulars: 1 uM compound, orexin-A 3 nM; for inhibition at 1 µM: CHO, read-out: OX2R % Inh. @ 1uM. Here is the method:
as §1, §2
(In general: Calcium assays in cells follow changes in intracellular calcium, usually with a dye or a luminescent sensor.)

Consider `Cc1cc(C)nc(N2CC[C@@H](C)N(C(=O)c3nn4ccccc4c3-c3ccccc3)CC2)n1` [Example 71], for which the inhibition at 1 µM worked out at 75% on human orexin-1 receptor and 96% on human orexin-2 receptor.
`Cc1cc(C)nc(N2CC[C@@H](C)N(C(=O)c3c(-c4ccccc4)nn4c3COCC4)CC2)n1` [Example 72]: the inhibition at 1 µM at human orexin-1 receptor stood at 28%; on human orexin-2 receptor, 65%.
Taken in the same sequence, the figures for `Cc1cc(C)nc(N2CC[C@@H](C)N(C(=O)c3c(-c4ccccc4)nc4ccccn34)CC2)n1` [Example 73] were 65% and 95%.
The corresponding values for `Cc1cc(C)nc(N2CC[C@@H](C)N(C(=O)c3nn4cccnc4c3-c3ccccc3)CC2)n1` [Example 74] are 74% and 95%.
For the molecule `Cc1cc(C)nc(N2CC[C@@H](C)N(C(=O)c3c(-c4ccccn4)nn4ccccc34)CC2)n1` [Example 75], the figures for the inhibition at 1 µM at human orexin-1 receptor and on human orexin-2 receptor were 79% and 100%, respectively.
Taken in the same sequence, the figures for `COc1ccc(N2CC[C@@H](C)N(C(=O)c3nn4c(c3-c3ccccc3)COCC4)CC2)nc1` [Example 76] were 23% and 11%.
As for `COc1ccc(N2CC[C@@H](C)N(C(=O)c3nc4ccccn4c3-c3ccccc3)CC2)nc1` [Example 77], the inhibition at 1 µM is 38% on human orexin-1 receptor and 16% on human orexin-2 receptor.
The corresponding values for `COc1ccc(N2CC[C@@H](C)N(C(=O)c3nn4ccccc4c3-c3ccccc3)CC2)nc1` [Example 78] are 90% and 52%.
Taken in the same sequence, the figures for `COc1ccc(N2CC[C@@H](C)N(C(=O)c3nn4c(c3-c3ccccc3)OCCC4)CC2)nc1` [Example 79] were 45% and 21%.
On to `COc1ccc(N2CC[C@@H](C)N(C(=O)c3nn4cccnc4c3-c3ccccc3)CC2)nc1` [Example 80], for which the inhibition at 1 µM on human orexin-1 receptor was found to be 78%; on human orexin-2 receptor it was 39%.
For `COc1ccc(N2CC[C@@H](C)N(C(=O)c3c(-c4ccccn4)nn4ccccc34)CC2)nc1` [Example 81], on human orexin-1 receptor, the “OXIR % Inh. @ 1 uM” value stood at 76%. The inhibition at 1 µM at human orexin-2 receptor amounted to 47%.
For the molecule `C[C@@H]1CCN(c2cnc(C(F)(F)F)cn2)CCN1C(=O)c1nn2c(c1-c1ccccc1)COCC2` [Example 82], the inhibition at 1 µM stood at 39% at human orexin-1 receptor and 2% on human orexin-2 receptor.
Turning to `C[C@@H]1CCN(c2cnc(C(F)(F)F)cn2)CCN1C(=O)c1nc2ccccn2c1-c1ccccc1` [Example 83], the inhibition at 1 µM at human orexin-1 receptor was found to be 69%; on human orexin-2 receptor, 27%.
In the case of `C[C@@H]1CCN(c2cnc(C(F)(F)F)cn2)CCN1C(=O)c1nn2c(c1-c1ccccc1)OCCC2` [Example 84], the inhibition at 1 µM on human orexin-1 receptor turned out to be 71%; at human orexin-2 receptor, 27%.
For the molecule `C[C@@H]1CCN(c2cnc(C(F)(F)F)cn2)CCN1C(=O)c1nn2cccnc2c1-c1ccccc1` [Example 85], the inhibition at 1 µM on human orexin-1 receptor was determined as 93%; at human orexin-2 receptor it was 52%.
Turning to `C[C@@H]1CCN(c2cnc(C(F)(F)F)cn2)CCN1C(=O)c1nn2ccccc2c1-c1ccccc1` [Example 86], the figures for the inhibition at 1 µM on human orexin-1 receptor and on human orexin-2 receptor were 89% and 63%, respectively.
The corresponding values for `C[C@@H]1CCN(c2cnc(C(F)(F)F)cn2)CCN1C(=O)c1c(-c2ccccn2)nn2ccccc12` [Example 87] are 83% and 57%.
For the molecule `C[C@@H]1CCN(c2cnc(C(F)(F)F)cn2)CCN1C(=O)c1c(-c2ncccn2)nn2ccccc12` [Example 88], the values for the inhibition at 1 µM on human orexin-1 receptor and at human orexin-2 receptor were 51% and 29%, respectively.
Regarding `C[C@@H]1CCN(c2cnc(C(F)(F)F)cn2)CCN1C(=O)c1c(-c2ccccc2)nn2c1COCC2` [Example 89], the inhibition at 1 µM was found to be 25% on human orexin-1 receptor and 10% on human orexin-2 receptor.
`C[C@@H]1CCN(c2cnc(C(F)(F)F)cn2)CCN1C(=O)c1c(-c2ccccc2)nn2ccccc12` [Example 90]: the inhibition at 1 µM on human orexin-1 receptor came out at 95%; at human orexin-2 receptor, 80%.
Taken in the same sequence, the figures for `C[C@@H]1CN(c2cnc(C(F)(F)F)cn2)CCCN1C(=O)c1c(-c2ccccc2)nn2cccnc12` [Example 91] were 87% and 74%.
As to `COc1ccc(N2CC[C@@H](C)N(C(=O)c3c(-c4ncccn4)nn4ccccc34)CC2)nc1` [Example 92], the inhibition at 1 µM was 25% on human orexin-1 receptor and 13% on human orexin-2 receptor.
Regarding `COc1ccc(N2CC[C@@H](C)N(C(=O)c3c(-c4ccccn4)nn4ccccc34)CC2)nc1` [Example 93], the “OXIR % Inh. @ 1 uM” value at human orexin-1 receptor is 36%. For the same molecule, the “OX2R % Inh. @ 1uM” value at human orexin-2 receptor is on record as 33%.
Taken in the same sequence, the figures for `C[C@@H]1CCN(c2cnc(C(F)(F)F)cn2)CCN1C(=O)c1c(-c2ncccn2)nn2ccccc12` [Example 94] were 43% and 21%.
On to `C[C@@H]1CCN(c2cnc(C(F)(F)F)cn2)CCN1C(=O)c1c(-c2ccccn2)nn2ccccc12` [Example 95], for which, at human orexin-1 receptor, the “OXIR % Inh. @ 1 uM” value worked out at 86%. In addition, the “OX2R % Inh. @ 1uM” value at human orexin-2 receptor amounted to 61%.
With `C[C@@H]1CCN(c2nc3cc(Cl)ccc3o2)CCN1C(=O)c1nn2cccnc2c1-c1ccccn1` [Example 96], the inhibition at 1 µM at human orexin-1 receptor came to 100%; at human orexin-2 receptor, 71%.
As for `C[C@@H]1CCN(c2ccc(C(F)(F)F)cn2)CCN1C(=O)c1nn2cccnc2c1-c1ccccn1` [Example 97], the inhibition at 1 µM at human orexin-1 receptor was 98%; on human orexin-2 receptor, 51%.
In the case of `C[C@@H]1CCN(c2cnc(C(F)(F)F)cn2)CCN1C(=O)c1nn2cccnc2c1-c1ccccn1` [Example 98], the inhibition at 1 µM is 57% at human orexin-1 receptor and 26% on human orexin-2 receptor.
Consider `Cc1cc(C)nc(N2CC[C@@H](C)N(C(=O)c3nn4cccnc4c3-c3ccccn3)CC2)n1` [Example 99], for which the inhibition at 1 µM on human orexin-1 receptor came to 45%; at human orexin-2 receptor, 56%.
Take `C[C@@H]1CCN(c2nc3cc(Cl)ccc3o2)CCN1C(=O)c1ccnn1-c1ccccc1` [Example 100]: the inhibition at 1 µM on human orexin-1 receptor amounted to 54%; on human orexin-2 receptor, 57%.
The corresponding values for `C[C@@H]1CCN(c2ccc(C(F)(F)F)cn2)CCN1C(=O)c1ccnn1-c1ccccc1` [Example 101] are 19% and 32%.

Source of the values: US20260256807A1, “SUBSTITUTED PYRAZOLES AND IMIDAZOLES AS OREXIN RECEPTOR ANTAGONISTS COMPOSITION, METHODS FOR TREATING NEUROLOGICAL AND PSYCHOLOGICAL DISORDERS” (HAGER BIOSCIENCES, LLC, priority 2022, published 2026).
